The values that follow come from PubChem BioAssay (NCI).

Test systems include CCRF-CEM leukemia; COLO 205 colon; HL-60(TB) leukemia; M14 melanoma; MALME-3M melanoma; PC-3 prostate; SF-295 CNS; SK-MEL-2 melanoma; T-47D breast; UACC-257 melanoma.
Assay in all cases: inhibition of tumour cell growth, NCI panel, 48 h

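1) Cells in 96-well plates. 2) Compound, 48 h, 5 concentrations. 3) Linear interpolation between surrounding doses. 4) Unreached endpoint = highest concentration. At the GI50, growth is halved. Definition used: TGI = concentration required for complete inhibition of growth.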 Bounds are passed on as bounds.

Turning to `COc1ccccc1/C=C\C(=O)c1ccccc1`, the GI50 in the experiment with CCRF-CEM leukemia is 3.28 µM; with COLO 205 colon, 11.9 µM; in the experiment with HL-60(TB) leukemia it was 5.06 µM; in the experiment on M14 melanoma, 12.5 µM; with MALME-3M melanoma it was 12.9 µM; in the experiment on PC-3 prostate, 5.85 µM. Moreover, the GI50 in the experiment with SF-295 CNS was 3.27 µM; in the experiment on SK-MEL-2 melanoma, 4.36 µM; with T-47D breast, 5.44 µM; with UACC-257 melanoma it was 12.9 µM. The TGI in the experiment on CCRF-CEM leukemia was over 100 µM; in the experiment with COLO 205 colon, 24.3 µM; in the experiment with HL-60(TB) leukemia, 45.6 µM; with M14 melanoma it was 25.6 µM; in the experiment on MALME-3M melanoma it was 26.2 µM; with PC-3 prostate, 23 µM. The TGI in the experiment with SF-295 CNS was determined as 14 µM; with SK-MEL-2 melanoma it was 14.6 µM; with T-47D breast it was 20 µM; in the experiment on UACC-257 melanoma it was 26.2 µM.
As to `Cc1n(Cc2ccc3ccccc3c2)c(Cl)c(Cl)[n+]1Cc1ccc2ccccc2c1`, the GI50 was 1.96 µM with CCRF-CEM leukemia; 1.65 µM in the experiment with COLO 205 colon; 1.11 µM in the experiment with HL-60(TB) leukemia; 1.79 µM in the experiment with M14 melanoma; 1.54 µM in the experiment on MALME-3M melanoma; 1.83 µM with PC-3 prostate. The GI50 in the experiment with SF-295 CNS was 2.62 µM; in the experiment with SK-MEL-2 melanoma it was 2.07 µM; with T-47D breast, 2.05 µM; in the experiment on UACC-257 melanoma, 1.81 µM. In addition, the TGI is 6.05 µM in the experiment on CCRF-CEM leukemia; 3.8 µM in the experiment with COLO 205 colon; 3.55 µM with HL-60(TB) leukemia; 3.99 µM in the experiment on M14 melanoma; 3.46 µM in the experiment with MALME-3M melanoma; 4.13 µM in the experiment on PC-3 prostate. In addition, the TGI in the experiment on SF-295 CNS was found to be 8.09 µM; in the experiment on SK-MEL-2 melanoma it was 4.13 µM; with T-47D breast it was 6.44 µM; in the experiment on UACC-257 melanoma, 4.21 µM.
As for `CC1(C)C2CCC13C(=O)C1OC3(C2)C2C(=O)c3c(O)cccc3C(=O)C12` (stereo not given), the GI50 is 0.212 µM with CCRF-CEM leukemia; 4.09 µM in the experiment with COLO 205 colon; 0.355 µM with HL-60(TB) leukemia; 3.24 µM in the experiment with M14 melanoma; 0.29 µM in the experiment with MALME-3M melanoma; 0.835 µM in the experiment with PC-3 prostate. Further, the GI50 was 0.156 µM in the experiment with SF-295 CNS, 3.69 µM in the experiment on SK-MEL-2 melanoma, 0.906 µM in the experiment on T-47D breast and 0.792 µM with UACC-257 melanoma. Moreover, the TGI in the experiment on CCRF-CEM leukemia came out at 1.14 µM; in the experiment on COLO 205 colon, 16.1 µM; in the experiment on HL-60(TB) leukemia, 1.2 µM; in the experiment on M14 melanoma, 12.2 µM; in the experiment with MALME-3M melanoma it was 1.02 µM; in the experiment with PC-3 prostate, 3.09 µM. The TGI is 0.442 µM in the experiment on SF-295 CNS, over 100 µM with SK-MEL-2 melanoma, 6.58 µM in the experiment with T-47D breast and 2.43 µM in the experiment on UACC-257 melanoma.
Turning to `O=C(O)Cn1ccnc1[N+](=O)[O-]`, the TGI with CCRF-CEM leukemia, in the experiment with COLO 205 colon, with HL-60(TB) leukemia, with M14 melanoma, with MALME-3M melanoma and in the experiment on PC-3 prostate was over 100 µM each time. Besides, the TGI in the experiment on SF-295 CNS, in the experiment on SK-MEL-2 melanoma, in the experiment with T-47D breast and in the experiment on UACC-257 melanoma was over 100 µM each time.
Regarding `Nc1ncnc2c1c(-c1ccc(Oc3ccccc3)cc1)nn2C[C@@H]1SSC[C@@H]1O`, the GI50 with CCRF-CEM leukemia is 0.061 µM; in the experiment with COLO 205 colon it was 1.58 µM; in the experiment with HL-60(TB) leukemia, 0.576 µM; in the experiment on M14 melanoma it was 0.0212 µM; with MALME-3M melanoma, 0.445 µM; with PC-3 prostate, 1.72 µM. For the same compound, the GI50 with SF-295 CNS was 1.47 µM; with SK-MEL-2 melanoma, 0.212 µM; in the experiment with T-47D breast, 0.305 µM; in the experiment on UACC-257 melanoma it was 0.374 µM. Further, the TGI is over 59.7 µM in the experiment with CCRF-CEM leukemia; 4.7 µM in the experiment with COLO 205 colon; 7.89 µM in the experiment with HL-60(TB) leukemia; 0.0462 µM in the experiment on M14 melanoma; 2.24 µM in the experiment with MALME-3M melanoma; 10.1 µM in the experiment on PC-3 prostate. The TGI was determined as 5.49 µM in the experiment on SF-295 CNS, 0.502 µM in the experiment on SK-MEL-2 melanoma, 2.27 µM in the experiment with T-47D breast and 11.9 µM with UACC-257 melanoma.
In the case of `NC(=O)c1cc(I)ccc1NC(=O)COc1ccccc1`, the GI50 with CCRF-CEM leukemia is 0.463 µM; in the experiment with COLO 205 colon, 0.323 µM; with HL-60(TB) leukemia, 0.335 µM; in the experiment on M14 melanoma, 0.403 µM; in the experiment on MALME-3M melanoma it was 7.28 µM; in the experiment with PC-3 prostate, 0.471 µM. For the same compound, the GI50 in the experiment on SF-295 CNS is 0.256 µM; with SK-MEL-2 melanoma, 0.566 µM; in the experiment with T-47D breast it was 0.556 µM; with UACC-257 melanoma it was 41.7 µM. Besides, the TGI is over 100 µM with CCRF-CEM leukemia; 1.97 µM in the experiment with COLO 205 colon; 27.8 µM in the experiment on HL-60(TB) leukemia; over 100 µM in the experiment on M14 melanoma; over 100 µM with MALME-3M melanoma; over 100 µM in the experiment on PC-3 prostate. For the same compound, the TGI with SF-295 CNS was 3.39 µM; with SK-MEL-2 melanoma, 16.3 µM; with T-47D breast it was over 100 µM; in the experiment on UACC-257 melanoma, over 100 µM.
As to `CC(C)(CO)N=Cc1ccccc1[O-].CC(C)(CO)N=Cc1ccccc1[O-].[Co+2]`, the GI50 in the experiment with CCRF-CEM leukemia was 5.86 µM; with COLO 205 colon, 55.9 µM; in the experiment with HL-60(TB) leukemia, 11.8 µM; with M14 melanoma it was 38.7 µM; in the experiment with MALME-3M melanoma, 49.5 µM; in the experiment with PC-3 prostate, 49.3 µM. Moreover, the GI50 was over 100 µM in the experiment on SF-295 CNS, over 76.5 µM in the experiment on SK-MEL-2 melanoma, 10.1 µM in the experiment on T-47D breast and 30.1 µM in the experiment with UACC-257 melanoma. The TGI is 68.2 µM with CCRF-CEM leukemia; over 100 µM with COLO 205 colon; 79.4 µM in the experiment with HL-60(TB) leukemia; over 100 µM in the experiment with M14 melanoma; over 100 µM with MALME-3M melanoma; over 100 µM in the experiment on PC-3 prostate. Besides, the TGI in the experiment on SF-295 CNS, with SK-MEL-2 melanoma, in the experiment on T-47D breast and in the experiment with UACC-257 melanoma was over 100 µM throughout.
As to `CN(C)C/C=C/C(=O)Nc1ccc(C(=O)N2CCC[C@@H](Nc3ncc(Cl)c(-c4c[nH]c5ccccc45)n3)C2)cc1`, the GI50 in the experiment with CCRF-CEM leukemia is 0.0438 µM; in the experiment with COLO 205 colon, 0.0338 µM; in the experiment on HL-60(TB) leukemia, 0.0353 µM; with M14 melanoma, 0.359 µM; in the experiment on MALME-3M melanoma, 0.0372 µM; in the experiment with PC-3 prostate it was 0.308 µM. Also, the GI50 in the experiment on SF-295 CNS was 0.685 µM; in the experiment with SK-MEL-2 melanoma, 0.115 µM; in the experiment with T-47D breast, 0.0427 µM; in the experiment on UACC-257 melanoma it was 0.234 µM. Besides, the TGI in the experiment with CCRF-CEM leukemia amounted to 15.8 µM; in the experiment on COLO 205 colon, 0.122 µM; in the experiment on HL-60(TB) leukemia, 0.173 µM; in the experiment on M14 melanoma it was 2.16 µM; in the experiment on MALME-3M melanoma, 0.315 µM; in the experiment on PC-3 prostate, 3.48 µM. For the same compound, the TGI was found to be 4.01 µM in the experiment with SF-295 CNS, 0.392 µM in the experiment with SK-MEL-2 melanoma, 4.27 µM in the experiment on T-47D breast and 1.32 µM in the experiment with UACC-257 melanoma.
